Broadly, the IC50 is the concentration at which inhibition is half-maximal.

Entries after “also recorded” stand apart in the source; their conditions may differ.

The test system of experiment [1] is rat hippocampal astrocytes. In words: [3H]D-serine transport into primary cultures of rat hippocampal astrocytes. It is filed as cell-based. As to conditions: for IC50: Astrocyte, inhibition of [3H]D-serine transport, rat hippocampal astrocytes, means of at least two determinations; for fraction of D-serine transport represented by the component for which the compound shows higher affinity: two-component inhibition curves in astrocytes.

Another experiment has as its target T1, asc-1 (Rattus norvegicus, UniProt P63116).
T1 construct: from tissue; host or cells: rat forebrain P2 (synaptosome) fraction
T1 sequence (P63116 1-530): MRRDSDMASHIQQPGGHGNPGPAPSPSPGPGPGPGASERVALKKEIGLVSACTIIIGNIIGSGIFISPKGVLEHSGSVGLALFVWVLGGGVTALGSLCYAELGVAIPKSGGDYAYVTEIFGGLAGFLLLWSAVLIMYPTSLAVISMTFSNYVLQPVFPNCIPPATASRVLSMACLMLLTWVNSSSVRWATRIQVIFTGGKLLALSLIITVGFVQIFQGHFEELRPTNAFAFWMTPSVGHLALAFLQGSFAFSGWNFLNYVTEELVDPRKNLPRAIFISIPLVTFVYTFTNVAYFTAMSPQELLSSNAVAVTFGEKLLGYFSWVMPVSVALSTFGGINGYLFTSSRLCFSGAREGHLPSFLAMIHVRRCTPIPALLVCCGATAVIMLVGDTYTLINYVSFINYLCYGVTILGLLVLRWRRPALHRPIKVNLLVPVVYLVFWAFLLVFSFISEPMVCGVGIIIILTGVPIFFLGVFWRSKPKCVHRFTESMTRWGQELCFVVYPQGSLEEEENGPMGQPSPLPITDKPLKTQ
T1 sequence (Q794F9 1-527 partner): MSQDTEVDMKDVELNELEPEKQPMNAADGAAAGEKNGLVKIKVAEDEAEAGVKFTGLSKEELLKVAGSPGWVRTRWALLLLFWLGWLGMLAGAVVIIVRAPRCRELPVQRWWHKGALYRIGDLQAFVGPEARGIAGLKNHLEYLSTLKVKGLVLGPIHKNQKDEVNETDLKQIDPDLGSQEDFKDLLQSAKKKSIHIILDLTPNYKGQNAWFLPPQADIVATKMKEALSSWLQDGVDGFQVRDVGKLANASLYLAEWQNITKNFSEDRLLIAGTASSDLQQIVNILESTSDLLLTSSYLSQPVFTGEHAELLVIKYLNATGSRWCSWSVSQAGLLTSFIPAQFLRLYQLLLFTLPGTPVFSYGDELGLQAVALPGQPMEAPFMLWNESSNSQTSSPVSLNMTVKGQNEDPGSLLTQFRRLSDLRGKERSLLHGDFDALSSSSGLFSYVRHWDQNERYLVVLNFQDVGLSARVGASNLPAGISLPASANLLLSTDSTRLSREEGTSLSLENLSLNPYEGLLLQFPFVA
The experiment is described as follows: sodium-independent [3H]D-serine transport into rat forebrain synaptosomes. The following applies: inhibition of [3H]D-serine transport, rat brain synaptosomes; means of at least two determinations. It is filed as biochemical. The method, then: Under the assay conditions used, the sodium-independent transport of D-serine by rodent forebrain synaptosomes is mediated by asc-1 (Rutter et al., 2007), and the sodium-dependent transport of D-serine into astrocytes in culture is mediated by an ASCT transporter, ASCT2 according to the literature (Ribeiro et al., 2002).
Synaptosome assays: a P2 fraction of rat forebrain was prepared and assayed immediately. Aliquots of the P2 preparation (approx. 1 mg of original tissue weight) were incubated in sodium-free assay buffer (CholineCl: 128 mM, KCl: 3.5 mM; KH2PO4: 1.5 mM; MgCl2: 1 mM; CaCl2: 1 mM; glucose: 10 mM; Tris-acetate buffer: 10 mM, pH7.4) containing [^3H]D-serine (final concentration of 50 nM) and test compounds in duplicate for 4 mins at room temperature. The synaptosomes containing radiolabel were collected by filtration onto Whatman GF/C filters, and washed twice with ice cold assay buffer. Filters were solubilized in scintillation fluid and radioactivity determined in a beta counter. IC50 values were determined as described for the cell-based assays above.

Experiment [2] relates to amphetamine-induced hyperlocomotion in mice. The experiment is described as follows: amphetamine induced hyperactivity. The following applies: for effect on amphetamine-induced hyperactivity/hyperlocomotion: systemic administration, amphetamine 2 mg/kg s.c. It is filed as in vivo. How it is done: C57B/6 male mice (n=5-10/group) were placed in an open field apparatus and their activity was measured for 30 minutes. At 30 minutes, they received a vehicle injection or injection of test compound followed by an injection of amphetamine (2 mg/kg, s.c.) at minute 45. Their activity levels were subsequently measured for another 1 hour post-injection. Total activity for each 5 minute bin (21 total bins) was added to establish the activity curve over the 105 minute testing.

For experiment [3], the system named is LTP in the rat hippocampal slice. The experiment is described as follows: LTP in the rat hippocampal slice preparation. The following applies: 100 μM.
The target in another experiment is T2, human ASCT2 (Homo sapiens, UniProt Q15758).
T2 construct: expressed in transfected cells; host or cells: HEK (human embryonic kidney) cells
T2 sequence (Q15758 1-541): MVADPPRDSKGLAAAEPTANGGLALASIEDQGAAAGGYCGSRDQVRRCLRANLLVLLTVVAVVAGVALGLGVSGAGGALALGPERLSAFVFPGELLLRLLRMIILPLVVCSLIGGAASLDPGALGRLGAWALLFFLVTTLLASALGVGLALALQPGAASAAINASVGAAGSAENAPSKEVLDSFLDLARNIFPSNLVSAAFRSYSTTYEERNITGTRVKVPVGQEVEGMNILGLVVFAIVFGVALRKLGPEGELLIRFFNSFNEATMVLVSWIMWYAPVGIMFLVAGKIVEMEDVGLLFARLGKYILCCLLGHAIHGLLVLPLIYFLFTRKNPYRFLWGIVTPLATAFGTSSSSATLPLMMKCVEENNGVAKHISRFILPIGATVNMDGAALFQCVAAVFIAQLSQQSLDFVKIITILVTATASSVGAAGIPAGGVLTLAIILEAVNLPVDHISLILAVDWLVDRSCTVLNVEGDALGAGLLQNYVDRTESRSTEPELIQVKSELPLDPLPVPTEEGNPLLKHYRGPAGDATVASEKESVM
In words: transport into HEK cells expressing ASCT2. As to conditions: [3H]L-serine transport, HEK cells. It is filed as cell-based. How it is done:
(§1) Cell-based assays: the transport of [^3H]L- or D-serine was measured in primary cultures of rat hippocampal astrocytes or in human embryonic kidney (HEK) cells expressing ASCT transporter sub-types. For the astrocyte assays, cells were plated on either 24- or 96-well plates at a density of 50,000 cells per well. For the HEK assays, cells were plated on coated 96-well plates at a density of 80,000 cells/well. Assays were conducted in duplicate at room temperature in assay buffer consisting of: NaCl: 150 mM, KCl: 2 mM; MgCl2: 1 mM; CaCl2: 1 mM; HEPES: Tris buffer: 10 mM, pH7.4. To assess the sodium-dependence of transport, NaCl was replaced in the assay buffer by equimolar choline chloride. Following aspiration of growth medium and 2 washes with assay buffer, cells were incubated with [^3H]L- or D-serine at a final concentration of 1 μM for 5 min (astrocytes) or 1 min (HEK cells), after which the incubation medium was aspirated and the cells washed twice with ice-cold assay buffer. Cells containing radiolabel were solubilized in 100 μl of 1% Triton-X100 and an aliquot counted in a beta counter. IC50 values were determined over a range of at least 6 concentrations and derived from curve-fitting algorithms available in GraphPad Prism 4.

In a further experiment the test system is ASCT2. As to conditions: Utsunomiya-Tate 1996; Broer 1999; Torres-Zamorano 1998; cited from earlier work.
Another experiment addresses T3, human ASCT1 (Homo sapiens, UniProt P43007).
T3 construct: expressed in transfected cells; host or cells: HEK (human embryonic kidney) cells
T3 sequence (P43007 1-532): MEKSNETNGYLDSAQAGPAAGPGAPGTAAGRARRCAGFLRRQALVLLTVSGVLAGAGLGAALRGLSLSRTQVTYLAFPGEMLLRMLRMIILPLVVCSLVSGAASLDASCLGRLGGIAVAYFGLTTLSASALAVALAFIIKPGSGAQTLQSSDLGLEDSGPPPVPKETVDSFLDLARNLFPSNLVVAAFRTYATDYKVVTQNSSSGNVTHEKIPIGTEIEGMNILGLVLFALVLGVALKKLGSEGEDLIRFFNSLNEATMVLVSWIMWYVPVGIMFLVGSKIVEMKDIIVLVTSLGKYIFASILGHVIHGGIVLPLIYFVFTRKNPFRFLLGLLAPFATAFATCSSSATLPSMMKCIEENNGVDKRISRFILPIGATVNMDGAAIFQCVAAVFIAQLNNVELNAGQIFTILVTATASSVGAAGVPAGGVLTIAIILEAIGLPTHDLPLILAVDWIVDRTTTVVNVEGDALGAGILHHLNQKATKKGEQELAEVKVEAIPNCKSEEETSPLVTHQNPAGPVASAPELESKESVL
The experiment is described as follows: transport into HEK cells expressing ASCT1. It is filed as cell-based. As to conditions: [3H]L-serine transport, HEK cells. How it is done:
as §1

With `NC(C(=O)O)c1ccccc1F` (racemic) [DL-2-fluorophenylglycine], the IC50 in experiment [1] is 1570 µM; at asc-1 it was 348 µM.

For `N[C@H](C(=O)O)c1ccc(F)cc1` [L-4-fluorophenylglycine], the figures for the IC50 (in experiment [1]; at asc-1) were 27.9 µM and 258 µM, respectively. Besides, the “effect on amphetamine-induced hyperlocomotion at 0.3 mg/kg ip” value in experiment [2] (0.3 mg/kg ip) is “significant effect”. For the same compound, the “effect on amphetamine-induced hyperactivity/hyperlocomotion” value in experiment [2] is recorded as “potent dose-dependent inhibitor”.

`N[C@@H](CCC(=O)Nc1ccc([N+](=O)[O-])cc1)C(=O)O` [L-GPNA, L-gamma-glutamyl-4-nitroanilide] displayed an IC50 against asc-1 of 453 µM. For the same compound, in experiment [3], the “effect on LTP in the rat hippocampal slice” value is given as “enhance LTP”.

Compound `NC(=O)C[C@H](N)C(=O)O` [L-asparagine] registered an IC50 at asc-1 of 668 µM.

Take `N[C@@H](CCC(=O)OCc1ccccc1)C(=O)O` [L-glutamate-γ-benzyl ester]: the IC50 in experiment [1] stood at 3000 µM; against asc-1, 62 µM.

Regarding `NC(=O)CC[C@H](N)C(=O)O` [L-glutamine], in experiment [1], half-maximal inhibition (IC50) required 1640 µM and the “fraction of D-serine transport represented by the component for which the compound shows higher affinity” value is listed as “approximately 40%”. Moreover, the concentration for half-maximal inhibition (IC50) at asc-1 came out at 943 µM. In addition, the “selectivity for ASCT2 over ASCT1” value at human ASCT2 is given as “showed selectivity towards ASCT2; also recorded: selective for ASCT2”. The “affinity for ASCT2 reported in the literature” value in the experiment with ASCT2 is 23 to 70 µM.

`N[C@@H](CO)C(=O)O` [L-serine]: the half-maximal inhibitory concentration (IC50) in experiment [1] came to 57.9 µM; on asc-1, 9.6 µM.

Regarding `O=C(O)[C@@H]1C[C@@H](O)CN1` [L-trans-4-hydroxyproline], the results for the IC50 (in experiment [1]; at asc-1) were 38.9 µM and over 10000 µM, respectively. Also, the “fraction of D-serine transport represented by the component for which the compound shows higher affinity” value in experiment [1] was “approximately 60%”. The “selectivity for ASCT1 over ASCT2” value on human ASCT1 (listed as L-t-4OHPro) was “showed selectivity towards ASCT1”; at human ASCT1 (listed as L-trans-4OHPro), “selective for ASCT1”.

`O=C(O)[C@@H]1C[C@@H](Cc2ccc(Cl)cc2Cl)CN1` [R-gamma-2,4-dichlorobenzyl-L-proline]: the “effect on amphetamine-induced hyperactivity/hyperlocomotion” value in experiment [2] is “effective”.

Compound `N[C@@H](CSCc1ccccc1)C(=O)O` [S-benzyl-L-cysteine] came in with an IC50 against asc-1 of 86 µM.

In the case of `N[C@@H](CSc1ccccc1)C(=O)O` [S-phenyl-L-cysteine], the figures for the half-inhibitory concentration (IC50) (in experiment [1]; on asc-1) were 597 µM and 29.3 µM, respectively.

The record behind these values is patent publication US8741955B2, “D-serine transporter inhibitors as pharmaceutical compositions for the treatment of central nervous system disorders” (Allergan, Inc., priority 2011, dated 2014).
